Data taken from patent US20250002854A1, “METHODS OF GENERATING POPULATIONS OF TUMOUR-INFILTRATING T CELLS” (LYTIX BIOPHARMA AS, priority 2016, published 2025).
Square brackets hold non-standard residues; d marks the D form. Ends that are not written are not given here. Dip = N[C@H](C(=O)O)C(c1ccccc1)c1ccccc1

Columns and labels:
B16F1 cells = assay: TEM electron microscopy of B16F1 cells; type: cell-based, murine; details: 108 μM
Method: B16F1 cells were seeded in 35 mm sterile tissue culture dishes at a density of 1×10^4 cells in a volume of 2 ml of culture media, and left to adhere and grow in a cell incubator at 37° C., >95% humidity and 5% CO2 conditions. When cultured cells reached an acceptable confluence (˜80-90%), they were incubated with the 4×IC50^4h value of LTX-401 (108 μM) for different time points (5, 15, 30 and 60 minutes) and subsequently fixed in a PHEM buffered (0.1 M) solution containing 0.05% malachite green oxalate (Sigma), 0.5% glutaraldehyde (GA, Electron Microscopy Sciences) and 4% formaldehyde (FA, Electron Microscopy Sciences). Malachite green is more frequently being used as an additive to primary fixation in order to reduce lipid extraction commonly associated with sample processing. Samples were immediately loaded and processed en bloc using the PELCO Biowave Pro Laboratory Microwave (Ted Pella, Inc.), a newly introduced method considered to be advantageous over conventional bench protocols, since it reduces sample preparation from days to hours. For all microwave steps, samples were microwaved at 23° C. with a 50° C. cut-out temperature. Both malachite green/GA/FA and osmium-reduced ferrocyanide (0.8% K3Fe (CN)6/1% OsO4) fixation steps were run in “power on/off” cycles of 2 minutes on, 2 minutes off (100 W), with vacuum.
Samples were rinsed four times with 0.1 M PHEM buffer between each step (two bench rinses and two final rinses for 40 seconds at 250 W) before being stained with 1% tannic acid (Electron Microscopy Sciences, PA, USA) and 1% aqueous uranyl acetate (Electron Microscopy Sciences, PA, USA) under “power on/off” cycles of 1 minute on, 1 minute off (150 W), with vacuum. Samples were rinsed as previously described between each staining procedure, in addition to being microwaved twice in water at 250 W (vacuum off). […]

[1] = previous studies by Ausbaucher et al.; cited from earlier work
[2] = test system: tumour tissue sections from patients; assay: Clinical histology, CD3/CD8 immunostaining of patient tumours; type: in vivo, human
Method: Formalin-fixed and paraffin-embedded tumour tissue sections from patients were deparaffinized in xylene and graded alcohols, hydrated and washed in PBS. After antigen retrieval in sodium citrate buffer (pH 6) in a microwave oven, the endogenous peroxidase was blocked by 0.3% H2O2 for 15 min. Sections were incubated overnight at 4° C. with primary antibody; rabbit polyclonal anti-CD3 (clone A0452 Dako) or mouse monoclonal anti-CD8 (clone OX8, ab33786, Abcam). As a secondary antibody, the anti-rabbit-horseradish peroxidase (HRP) SuperPicTure Polymer detection kit (Invitrogen) or Envision system HRP-anti-mouse (Dako) were used. A matched isotype control was used as a control for nonspecific background staining

A375 cells = assay: Release of HMGB1 (Western blot); type: cell-based, human; details: 35 μM, up to 60 min
Method: A375 cells were seeded with 3×10^5 cells/well in 6-well plates in a complete media, and allowed to adhere overnight. Cells were treated with LTX-315 or LTX-328 at 35 μM, and incubated at 37° C. and 5% CO2 for different time points (5, 10, 15, 30, 60 min), and negative controls were serum-free RPMI-1650. Supernatants (S) were collected and centrifuged at 1,400 g for five minutes, and cell lysates (L) were harvested after washing with PBS twice and then subsequently lysed using a 4×Sample buffer (Invitrogen, number), 0.1 M DTT (Sigma number) and water. Supernatants were concentrated using Amicon Ultra 50 K centrifugal filters (Millipore UFC505024), and the cell lysate was sonicated. Both supernatants and lysate were boiled and resolved in a 10% sodium dodecyl sulfate polyacrylamide gel electrophoresis (SDS-PAGE), and then electro transferred to a polyvindiline difluoride (PVDF) membrane (Millipore). The membrane was blocked in 5% milk and incubated with the HMGB1 antibody (rabbit, polyclonal, abcam ab 18256); the membrane was then rinsed several times with TBST, incubated with a horseradish peroxidase (HRP)-conjugated secondary antibody (abcam ab6721), rinsed again with TBST and then developed using WB Luminol Reagent (Santa Cruz Biotechnology, Heidelberg, Germany).

[3] = test system: rat transformed mesenchymal stem cell-derived sarcoma (rTMSC); assay: Immunohistochemistry of rat rTMSC tumours; type: in vivo; details: primary and secondary tumor tissues
Method: Pre-cultured rat transformed mesenchymal stem cell-derived sarcoma model cells (rTMSCs) were harvested in serum free RPMI-1640 and 200,000 rTMSCs were subcutaneously inoculated in the right flank into PVG rats on day ÷2 and 20,000 rTMSCs in the opposite flank on day 0. Established tumours (25 mm^2 mean tumour size) were injected intralesionally with LTX-315 (dissolved in sterile H2O with 0.9% NaC ) (n=8) or with vehicle (sterile H2O with 0.9% NaCl) (n=6). Treatment doses of LTX-315, 50 μl at […] (1 mg), were given using a 1 ml syringe (Myjector U-100, Terumo) needle 0.5×16 mm (Fine-Ject; Henke-Sass, Wolf GmbH. Injections were provided daily for three subsequent days. Tumour size was measured three times a week using a caliper and expressed as the area of an ellipse [(maximum dimension/2)×(minimum dimension/2)]. Animals were terminated when the tumor exceeded 400 mm^2.
Formalin-fixed and paraffin-embedded tissue sections were deparaffinized in xylene and graded alcohols, hydrated and washed in PBS. After antigen retrieval in sodium citrate buffer (pH 6) in a microwave oven, the endogenous peroxidase was blocked by 0.3% H2O2 for 15 min. Sections were incubated overnight at 4° C. with primary antibody; rabbit polyclonal anti-CD3 (clone A0452 Dako) or mouse monoclonal anti-CD8 (clone OX8, ab33786, Abcam). […]

Row | Compound | ultrastructural changes (B16F1 cells; 5 min) | ultrastructural changes (B16F1 cells; 60 minutes) | mode of cell killing (B16F1 cells; TEM) | mitochondrial membrane potential (TMRE) [1] | infiltration of CD3+ and CD8+ cells ([2]; breast carcinoma patient) | infiltration of CD3+ and CD8+ cells ([2]; desmoid tumour patient) | infiltration of CD8+ cells ([2]; malignant melanoma patient) | infiltration of CD3+ and CD8+ cells ([2]; metastatic melanoma patient) | infiltration of CD3+ and CD8+ cells ([2]; myo-epithelioma patient) | HMGB1 translocation from cell lysate to supernatant (A375 cells) | infiltration of CD3+ and CD8+ cells (immunohistochemistry) [3]
1 | Cl.Cl.NCCNC(=O)C(CN)(CCCc1ccccc1)CCCc1ccccc1 [LTX-401] | lost their surface morphology | Large portions of cells were necrotic | kills by a lytic mode of action | did not compromise the mitochondrial membrane potential | – | – | – | – | – | – | –
2 | K-K-W-W-K-K-W-Dip-K-NH2 (KKWWKKW[Dip]K-NH2) [LTX-315] | – | – | – | – | infiltration of CD3^+ positive cells | infiltration of CD3^+ positive cells | infiltration of CD8^+ positive cells | infiltration of CD3^+ positive cells | infiltration of CD3^+ positive cells | gradual translocation from the cell lysate to the supernatant detected | increased infiltration of CD3^+ and CD8^+ cells
